The values below come from patent publication US6420563B1, “Small molecule modulators of G protein-coupled receptor six” (Arena Pharmaceuticals, Inc., priority 1998, dated 2002).

Molecules are shown by their SMILES. Where two headings read alike, the source gives them in different places.

The nature of series [1]: Locomotor activity cages (motor function). It is filed as in vivo, rat. The following applies: IP. As to the method: The effect of ARE112 on motor function was also examined. Motor function was assessed by using automated locomotor activity cages. Animals were placed in a standard rodent cage surrounded by photocell, which allowed for automated recording of motor activity. Animals were under no motivational constraints and were free to move around the cage.
Male Sprague-Dawley rats (n=4-9 per dose) were administered ARE112 (IP) prior to placement into in locomotor activity cages.

Series [2] in a line: Food/water intake and body weight in 24-hour food deprived rats, oral gavage (PO). The series is classed as in vivo, rat. The method, boiled down: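 Rats food-deprived 24 h, then dosed by oral gavage (6.75–54 mg/kg, or 100–200 μmol/kg for analogs). Food intake tracked over hours post-dose (2.5 h up to 8 h) along with body weight gain, compared with vehicle-treated rats.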
For series [3], the target named is T1, GPR6:Gsα-Fusion Protein (Homo sapiens, UniProt P46095).
T1 construct: expressed in transfected cells
The series can be described thus: [35S]GTPγS membrane binding assay (Example 4A). The series is classed as biochemical. The method, boiled down:
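Membranes from stable 293 cells expressing the fusion protein were pre-incubated 5-10 min at RT with compounds (10 μM final) in GDP buffer. [35S]GTPγS (0.6 nM as added) was then bound for 60 min at RT and counted after centrifugation. Inverse agonism was scored as reduced receptor-driven GTPγS binding.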
(In general: GTPγS is a poorly hydrolysed GTP analogue; its binding reports G protein activation.)

Series [4] can be described thus: Startle reflex in non-food deprived rats, oral administration. It is filed as in vivo, rat. The following applies: […] prior to testing, 12 db pre-pulse then 120 db pulse. On the procedure: As further evidence of this mild sedative activity, animals were measured to determine their startle reflexes. In this assay, ARE112 was orally administered in non-food deprived rats 4.5 hours prior to testing. Animals were subjected to a pre-pulse of 12 db followed by a 120 db pulse and subsequently measured for the height in which the animals jumped.

[5] abbreviates: 100 μmol/kg PO, second assay, Table D, vehicle 19.25.

The IC50 is the midpoint of a concentration-inhibition curve.

T1 sequence (P46095 with tags, fused parts or gaps): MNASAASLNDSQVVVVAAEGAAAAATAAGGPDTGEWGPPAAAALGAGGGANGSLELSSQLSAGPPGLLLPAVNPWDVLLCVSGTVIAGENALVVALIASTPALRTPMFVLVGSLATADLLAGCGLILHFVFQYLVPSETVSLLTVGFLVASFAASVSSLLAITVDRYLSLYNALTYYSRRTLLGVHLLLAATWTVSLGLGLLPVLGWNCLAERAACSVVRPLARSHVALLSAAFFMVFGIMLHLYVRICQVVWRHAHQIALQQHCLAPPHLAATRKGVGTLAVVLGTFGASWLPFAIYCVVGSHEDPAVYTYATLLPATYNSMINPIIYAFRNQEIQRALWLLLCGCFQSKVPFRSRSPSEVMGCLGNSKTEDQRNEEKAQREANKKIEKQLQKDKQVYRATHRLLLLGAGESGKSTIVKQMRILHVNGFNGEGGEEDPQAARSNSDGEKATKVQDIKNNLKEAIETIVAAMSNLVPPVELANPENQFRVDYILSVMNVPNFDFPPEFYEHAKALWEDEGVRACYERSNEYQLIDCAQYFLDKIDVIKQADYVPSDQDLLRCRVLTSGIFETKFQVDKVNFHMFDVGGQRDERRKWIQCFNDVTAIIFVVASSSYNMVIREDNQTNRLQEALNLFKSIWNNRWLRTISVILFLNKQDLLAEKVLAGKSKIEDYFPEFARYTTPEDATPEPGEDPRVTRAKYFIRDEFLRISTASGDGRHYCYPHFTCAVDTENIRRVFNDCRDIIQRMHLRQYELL

`O=C(N=C1SSC2=NCCN21)c1cccs1` [ARE112, N-(5,6-dihydro-3H-imidazo[2,1-c]-1,2,4-dithiazol-3-ylidene)-thiophen-2-carboxamide]: the locomotor activity result in series [1] (1.5 hour immediately after injection) was “does not affect locomotor activity”; in series [1] (16 hours post-injection), “decreases locomotor activity”. The “Cumulative Food Intake (g) (8 hr post administration)” value in series [2] (100 μmol/kg PO, second assay, Table D, vehicle 14.0) stood at 8.1 g. For the same compound, the “Body Weight Gain (g) (6 hr post administration)” value in series [2] (setting [5]) was determined as 6.25 g. Also, the “Cumulative Water Intake (g) (6 hr post administration)” value in series [2] (setting [5]) was 10.5 g. Moreover, the “body weight gain (FIG. 10C)” value in series [2] (100 μmol/kg oral, vehicle about 19.5 grams) is on record as 6 grams. Further, the food consumed result in series [2] (27 mg/kg oral gavage, 2.5 hours, vehicle about 6 grams) was “about 6 grams”; in series [2] (27 mg/kg oral gavage, 8 hours post-administration, vehicle about 14 grams), “about 8 grams”; in series [2] (54 mg/kg oral gavage, 2.5 hours, vehicle about 6 grams), approximately 4 grams; in series [2] (54 mg/kg oral gavage, 8 hours post-administration, vehicle about 14 grams) it was “about 6 grams”. Besides, the IC50 in series [3] (mean +/- standard deviation (number of assays in brackets), read-out: IC50 Values GTP Assay Example 4A) is 0.42 µM; in series [3] (representative IC50 curve, assay protocol of Example 4A, read-out: IC50 value against the GPR6 receptor (FIG. 4)), 0.15 µM. The “startle reflex (height jumped)” value in series [4] (13.5 mg/kg oral) and in series [4] (54 mg/kg oral) was “did not jump as high” each time.
